For orientation: EC50 means the midpoint of the concentration-response curve. One may read the CC50 as the concentration that lowers cell viability or growth by half. What is called AC50 is the concentration giving half of the maximal activity seen.

Molecules are shown by their SMILES. Several values for one entry are separate records, joined by “and”; a condition that tells them apart may be missing. Equal entries are not always repeated. Activity calls are given as the source filed them.

The target of test [1] is Induced myeloid leukemia cell differentiation protein Mcl-1 (Homo sapiens, UniProt Q07820). The test can be described thus: MCL1-BIM BH3 interaction inhibitors, dose response, biochemical, fluorescence polarization, BIM-BH3 peptide, 1536-well (AID 2217). For orientation: Fluorescence polarisation rises when a labelled molecule tumbles more slowly, as on binding a larger partner.
Chain of Induced myeloid leukemia cell differentiation protein Mcl-1 (Q07820 whole entry): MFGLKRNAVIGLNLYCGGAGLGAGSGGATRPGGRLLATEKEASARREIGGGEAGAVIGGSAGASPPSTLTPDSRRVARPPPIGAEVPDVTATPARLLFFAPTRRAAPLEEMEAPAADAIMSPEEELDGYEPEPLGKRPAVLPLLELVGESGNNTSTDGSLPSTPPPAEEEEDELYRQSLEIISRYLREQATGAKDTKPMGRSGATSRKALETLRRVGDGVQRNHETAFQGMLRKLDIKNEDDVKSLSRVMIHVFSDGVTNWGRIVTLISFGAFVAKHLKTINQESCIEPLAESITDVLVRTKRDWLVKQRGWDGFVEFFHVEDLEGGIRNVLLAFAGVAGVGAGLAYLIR

Test [2] has as its target Bcl-2-like protein 1 (Homo sapiens, UniProt Q07817). Briefly: BCL-XL inhibitors, dose response, selectivity assay for MCL1 inhibitor project, biochemical, fluorescence polarization, 1536-well (AID 2218).
In test [3] the target is Peroxisome proliferator-activated receptor gamma (Homo sapiens, UniProt P37231). The test can be described thus: PPARg partial agonists, dose response, cell-based, luminescence, assay provider (AID 504447). It is filed as functional.
Chain of Peroxisome proliferator-activated receptor gamma (P37231 whole entry): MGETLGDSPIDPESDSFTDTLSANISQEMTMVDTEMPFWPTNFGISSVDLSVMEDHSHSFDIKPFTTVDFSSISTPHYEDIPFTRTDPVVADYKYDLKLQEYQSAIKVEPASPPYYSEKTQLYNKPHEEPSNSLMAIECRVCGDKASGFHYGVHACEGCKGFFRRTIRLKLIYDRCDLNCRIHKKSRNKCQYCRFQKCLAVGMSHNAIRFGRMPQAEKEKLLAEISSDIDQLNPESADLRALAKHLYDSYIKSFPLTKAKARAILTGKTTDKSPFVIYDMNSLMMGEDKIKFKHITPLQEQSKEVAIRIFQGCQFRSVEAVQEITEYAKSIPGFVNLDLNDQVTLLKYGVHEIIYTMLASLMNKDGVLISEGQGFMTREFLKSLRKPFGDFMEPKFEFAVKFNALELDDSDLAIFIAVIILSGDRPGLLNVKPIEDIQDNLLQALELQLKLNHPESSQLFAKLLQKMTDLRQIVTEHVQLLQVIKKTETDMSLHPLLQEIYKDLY
Test [4] has as its target T1, Small ubiquitin-related modifier 1 (Homo sapiens, UniProt P63165). Briefly: inhibitors of SUMO1 peptide binding, dose response, biochemical, fluorescence polarization, uHTS hits (AID 624382). It is filed as functional. The following applies: read-out: IC50_Mean.
Test [5] addresses T2, Probable nicotinate-nucleotide adenylyltransferase (Staphylococcus aureus (strain N315), UniProt P65502). The class given is functional, Staphylococcus aureus subsp. aureus N315.
Test [6] has as its target T2, Probable nicotinate-nucleotide adenylyltransferase. The class given is functional, Staphylococcus aureus subsp. aureus N315. The note with it: read-out: IC50_Mean.
For test [7], the target named is T1, Small ubiquitin-related modifier 1. Briefly: inhibitors of SUMO1 partner interactions, dose response, biochemical, FRET (AID 624383). It is filed as functional. The note with it: read-out: IC50_Mean.
Test [8] in a line: HeLa cell cytotoxicity, dose response, cytotoxicity control for MgcRacGAP inhibitor project (AID 624300). The class given is functional.
Test [9] addresses T3, Rac GTPase-activating protein 1 (Homo sapiens, UniProt Q9H0H5).
T3 sequence (Q9H0H5 whole entry): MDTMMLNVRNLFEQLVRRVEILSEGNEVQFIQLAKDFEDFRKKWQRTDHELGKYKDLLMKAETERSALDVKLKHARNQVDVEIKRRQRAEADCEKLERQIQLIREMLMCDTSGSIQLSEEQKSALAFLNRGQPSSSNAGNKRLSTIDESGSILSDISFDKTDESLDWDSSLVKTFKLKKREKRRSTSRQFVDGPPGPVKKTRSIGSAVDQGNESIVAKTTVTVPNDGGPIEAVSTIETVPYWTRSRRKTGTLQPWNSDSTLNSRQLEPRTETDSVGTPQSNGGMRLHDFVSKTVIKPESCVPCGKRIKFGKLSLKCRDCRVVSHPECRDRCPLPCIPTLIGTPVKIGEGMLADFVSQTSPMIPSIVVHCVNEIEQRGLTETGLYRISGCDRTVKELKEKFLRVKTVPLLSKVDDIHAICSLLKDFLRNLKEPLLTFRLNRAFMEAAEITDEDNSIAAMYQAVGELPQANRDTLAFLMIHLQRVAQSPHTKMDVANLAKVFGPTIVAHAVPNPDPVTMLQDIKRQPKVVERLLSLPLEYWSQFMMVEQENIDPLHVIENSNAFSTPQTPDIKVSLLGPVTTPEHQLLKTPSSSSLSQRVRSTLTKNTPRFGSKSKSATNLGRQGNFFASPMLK
Briefly: MgcRacGAP GTPase-activating activity inhibitors, confirmation, biochemical, ADP Hunter fluorescence, primary and confirmatory (AID 624330). It is filed as functional.

In test [10] the target is T4, Heat shock factor protein 1 (Mus musculus, UniProt P38532).
T4 sequence (P38532 whole entry): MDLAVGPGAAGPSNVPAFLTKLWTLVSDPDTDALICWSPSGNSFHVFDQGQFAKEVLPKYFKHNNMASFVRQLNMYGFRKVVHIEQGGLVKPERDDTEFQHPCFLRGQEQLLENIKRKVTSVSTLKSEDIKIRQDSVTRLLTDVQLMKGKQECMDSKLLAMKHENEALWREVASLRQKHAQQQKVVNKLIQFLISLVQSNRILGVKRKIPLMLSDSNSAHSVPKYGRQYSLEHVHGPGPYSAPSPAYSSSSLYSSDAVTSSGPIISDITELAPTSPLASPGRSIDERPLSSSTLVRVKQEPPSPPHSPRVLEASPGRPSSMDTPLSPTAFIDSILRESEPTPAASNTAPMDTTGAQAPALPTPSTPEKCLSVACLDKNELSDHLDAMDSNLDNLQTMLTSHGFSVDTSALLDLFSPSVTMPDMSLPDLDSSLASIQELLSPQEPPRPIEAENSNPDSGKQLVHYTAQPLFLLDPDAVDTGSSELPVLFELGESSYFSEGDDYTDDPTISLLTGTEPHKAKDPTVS
The test can be described thus: inhibition of MG132-induced HSE-luciferase signal, confirmation, cell-based, NIH3T3, luminescence, dose retest (AID 2382).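 Note: NIH3T3 fibroblasts with HSF1-driven luciferase reporter stressed by proteasome inhibitor MG132; luminescence from HSF1-driven luciferase expression after 8 hours of MG132 stress.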 The class given is functional.

Test [11] concerns the target Intestinal-type alkaline phosphatase (Homo sapiens, UniProt P09923). The test can be described thus: activation of human intestinal alkaline phosphatase – biochemical, dose response (AID 488873). The class given is functional.
The target in test [12] is Intestinal-type alkaline phosphatase (Mus musculus, UniProt P24822). The test can be described thus: mouse intestinal alkaline phosphatase activators, dose response, biochemical, luminescence, uHTS hits (AID 488783). It is filed as functional.
Chain of Intestinal-type alkaline phosphatase (Mus musculus, UniProt P24822) (P24822 whole entry): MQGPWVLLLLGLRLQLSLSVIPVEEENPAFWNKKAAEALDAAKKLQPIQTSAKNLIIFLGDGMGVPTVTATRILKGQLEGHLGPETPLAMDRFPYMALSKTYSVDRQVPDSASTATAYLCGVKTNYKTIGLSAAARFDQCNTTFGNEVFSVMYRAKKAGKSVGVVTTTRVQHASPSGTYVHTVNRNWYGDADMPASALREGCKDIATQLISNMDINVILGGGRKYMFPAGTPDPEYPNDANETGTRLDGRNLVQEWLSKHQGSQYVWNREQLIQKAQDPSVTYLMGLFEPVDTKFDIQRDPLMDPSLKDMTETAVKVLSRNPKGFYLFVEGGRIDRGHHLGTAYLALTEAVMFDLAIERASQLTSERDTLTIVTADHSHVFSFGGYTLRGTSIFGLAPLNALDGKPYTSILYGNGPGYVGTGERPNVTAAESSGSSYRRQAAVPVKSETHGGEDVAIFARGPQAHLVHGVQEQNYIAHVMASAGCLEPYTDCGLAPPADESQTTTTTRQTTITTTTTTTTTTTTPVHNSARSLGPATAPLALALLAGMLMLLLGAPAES
Test [13] concerns the target T5, Alkaline phosphatase, tissue-nonspecific isozyme (Homo sapiens, UniProt P05186).
T5 sequence (P05186 whole entry): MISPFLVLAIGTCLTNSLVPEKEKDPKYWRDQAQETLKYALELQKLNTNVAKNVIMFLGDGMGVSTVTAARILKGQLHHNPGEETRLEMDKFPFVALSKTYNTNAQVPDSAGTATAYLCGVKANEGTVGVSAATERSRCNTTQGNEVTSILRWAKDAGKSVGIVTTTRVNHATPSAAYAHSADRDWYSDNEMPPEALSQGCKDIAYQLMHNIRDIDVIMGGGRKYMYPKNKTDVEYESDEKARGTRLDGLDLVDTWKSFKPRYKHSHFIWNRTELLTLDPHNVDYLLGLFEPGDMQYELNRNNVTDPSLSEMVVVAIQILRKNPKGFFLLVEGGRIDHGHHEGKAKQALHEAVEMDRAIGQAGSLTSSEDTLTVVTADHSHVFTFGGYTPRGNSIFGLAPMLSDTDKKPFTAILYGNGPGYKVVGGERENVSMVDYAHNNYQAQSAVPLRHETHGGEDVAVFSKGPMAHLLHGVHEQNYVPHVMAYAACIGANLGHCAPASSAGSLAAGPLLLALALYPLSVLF
Briefly: TNAP enzyme activators, dose response, selectivity assay for mouse IAP activator project, biochemical, TNAP isozyme, mouse IAP uHTS hits (AID 488880). The class given is functional.

The target in test [14] is T6, Streptokinase A (Streptococcus pyogenes serotype M1, UniProt P10520).
T6 sequence (P10520 whole entry): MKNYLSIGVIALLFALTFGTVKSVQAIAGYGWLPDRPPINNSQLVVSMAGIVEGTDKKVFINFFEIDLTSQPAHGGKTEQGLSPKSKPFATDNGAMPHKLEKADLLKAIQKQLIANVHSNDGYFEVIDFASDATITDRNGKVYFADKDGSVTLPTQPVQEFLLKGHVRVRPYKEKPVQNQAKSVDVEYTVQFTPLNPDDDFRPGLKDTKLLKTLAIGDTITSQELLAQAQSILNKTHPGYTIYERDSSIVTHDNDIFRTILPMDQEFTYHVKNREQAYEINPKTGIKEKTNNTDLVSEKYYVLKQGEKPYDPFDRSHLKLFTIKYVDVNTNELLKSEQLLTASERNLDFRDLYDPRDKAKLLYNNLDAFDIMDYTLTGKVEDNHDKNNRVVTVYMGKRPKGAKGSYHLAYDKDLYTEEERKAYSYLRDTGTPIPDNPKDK
The test can be described thus: S. pyogenes streptokinase expression inhibitors, potency, dose response, plasminogen activation absorbance, OD405 (AID 1914).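 Note: secreted streptokinase activity via plasminogen activation per viability signal from cell pellet.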 It is filed as functional, Streptococcus pyogenes M1 GAS.

The target in test [15] is T7, G-protein coupled receptor 35 (Homo sapiens, UniProt Q9HC97). Briefly: SAR analysis of Agonists of the GPR35 Receptor using an Image-Based Assay - Set 4. [Related pubchem assays (depositor defined):AID2013, AID2026]. The class given is functional.
T7 sequence (Q9HC97 whole entry): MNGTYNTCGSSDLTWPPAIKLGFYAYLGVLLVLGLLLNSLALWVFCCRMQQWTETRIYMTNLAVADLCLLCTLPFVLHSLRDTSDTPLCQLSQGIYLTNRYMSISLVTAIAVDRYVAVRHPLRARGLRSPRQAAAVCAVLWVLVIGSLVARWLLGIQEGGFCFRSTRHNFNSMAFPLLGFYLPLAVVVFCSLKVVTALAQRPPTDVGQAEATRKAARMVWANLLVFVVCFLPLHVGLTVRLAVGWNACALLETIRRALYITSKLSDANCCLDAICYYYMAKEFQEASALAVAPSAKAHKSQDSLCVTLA
Test [16] has as its target T8, Cannabinoid receptor 1 (Homo sapiens, UniProt P21554). Briefly: SAR analysis of agonists of the Cannabinoid Receptor 1 using an Image-Based Assay - Set 4. [Related pubchem assays (depositor defined):AID2013, AID2026]. It is filed as functional.
Test [17] concerns the target T7, G-protein coupled receptor 35. The test can be described thus: SAR analysis of Antagonists of the GPR35 Receptor using an Image-Based Assay - Set 6. [Related pubchem assays (depositor defined):AID2013, AID2026]. The class given is functional.
Test [18] concerns the target T8, Cannabinoid receptor 1. Briefly: SAR analysis of antagonists of the Cannabinoid Receptor 1 using an Image-Based Assay - Set 4. [Related pubchem assays (depositor defined):AID2013, AID2026]. The class given is functional.
In test [19] the target is G-protein coupled receptor 55 (Homo sapiens, UniProt Q9Y2T6). Briefly: SAR Analysis of Selective Antagonists of GPR55 using an Image-Based Assay - Set 4. [Related pubchem assays (depositor defined):AID2013, AID2026]. The class given is functional.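 Note: antagonism of response to 5 µM lysophosphatidylinositol agonist.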
Chain of G-protein coupled receptor 55 (Q9Y2T6 whole entry): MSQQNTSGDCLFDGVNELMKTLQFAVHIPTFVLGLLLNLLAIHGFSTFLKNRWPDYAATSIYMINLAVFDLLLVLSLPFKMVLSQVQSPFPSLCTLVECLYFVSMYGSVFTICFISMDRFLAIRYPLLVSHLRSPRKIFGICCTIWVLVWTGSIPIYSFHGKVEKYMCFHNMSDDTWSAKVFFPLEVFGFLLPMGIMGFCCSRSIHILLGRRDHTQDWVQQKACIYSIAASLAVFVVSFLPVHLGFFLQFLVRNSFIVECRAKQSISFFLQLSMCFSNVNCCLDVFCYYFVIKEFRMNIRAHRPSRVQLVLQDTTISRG
For test [20], the target named is T9, Cannabinoid receptor 2 (Homo sapiens, UniProt P34972). Briefly: SAR analysis of antagonists of the Cannabinoid Receptor 2 using an Image-Based Assay - Set 3. [Related pubchem assays (depositor defined):AID2013, AID2026]. The class given is functional.
T9 sequence (P34972 whole entry): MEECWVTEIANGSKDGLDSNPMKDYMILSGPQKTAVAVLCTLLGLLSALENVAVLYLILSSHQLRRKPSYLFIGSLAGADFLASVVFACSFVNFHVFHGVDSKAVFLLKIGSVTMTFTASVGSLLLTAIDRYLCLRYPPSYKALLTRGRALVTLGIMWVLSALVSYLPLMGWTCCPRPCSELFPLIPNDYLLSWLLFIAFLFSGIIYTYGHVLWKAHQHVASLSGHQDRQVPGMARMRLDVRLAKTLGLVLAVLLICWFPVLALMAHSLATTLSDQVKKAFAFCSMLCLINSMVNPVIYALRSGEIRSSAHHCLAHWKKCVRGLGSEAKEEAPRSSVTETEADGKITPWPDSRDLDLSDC
Test [21] addresses T9, Cannabinoid receptor 2. The test can be described thus: SAR analysis of agonists of the Cannabinoid Receptor 2 using an Image-Based Assay - Set 3. [Related pubchem assays (depositor defined):AID2013, AID2026]. The class given is functional.
The target in test [22] is Cytochrome P450 2D6 (Homo sapiens, UniProt P10635).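 Note: CYP2D6 member of a cytochrome P450 panel assay.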
Chain of Cytochrome P450 2D6 (P10635 whole entry): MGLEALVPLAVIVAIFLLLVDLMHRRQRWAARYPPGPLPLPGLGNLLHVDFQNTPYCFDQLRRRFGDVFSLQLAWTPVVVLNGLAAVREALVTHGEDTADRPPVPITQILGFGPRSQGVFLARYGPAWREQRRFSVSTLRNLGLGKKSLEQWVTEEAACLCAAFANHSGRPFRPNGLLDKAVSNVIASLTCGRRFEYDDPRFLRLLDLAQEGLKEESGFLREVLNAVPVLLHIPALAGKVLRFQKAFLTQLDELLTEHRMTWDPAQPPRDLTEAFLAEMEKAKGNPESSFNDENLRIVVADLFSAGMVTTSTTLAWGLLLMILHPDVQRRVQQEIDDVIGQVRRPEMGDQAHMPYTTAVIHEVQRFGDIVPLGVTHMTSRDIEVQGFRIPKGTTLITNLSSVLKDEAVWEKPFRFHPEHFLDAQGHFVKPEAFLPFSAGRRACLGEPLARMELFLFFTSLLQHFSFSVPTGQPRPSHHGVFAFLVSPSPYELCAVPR

T8 sequence (P21554 whole entry): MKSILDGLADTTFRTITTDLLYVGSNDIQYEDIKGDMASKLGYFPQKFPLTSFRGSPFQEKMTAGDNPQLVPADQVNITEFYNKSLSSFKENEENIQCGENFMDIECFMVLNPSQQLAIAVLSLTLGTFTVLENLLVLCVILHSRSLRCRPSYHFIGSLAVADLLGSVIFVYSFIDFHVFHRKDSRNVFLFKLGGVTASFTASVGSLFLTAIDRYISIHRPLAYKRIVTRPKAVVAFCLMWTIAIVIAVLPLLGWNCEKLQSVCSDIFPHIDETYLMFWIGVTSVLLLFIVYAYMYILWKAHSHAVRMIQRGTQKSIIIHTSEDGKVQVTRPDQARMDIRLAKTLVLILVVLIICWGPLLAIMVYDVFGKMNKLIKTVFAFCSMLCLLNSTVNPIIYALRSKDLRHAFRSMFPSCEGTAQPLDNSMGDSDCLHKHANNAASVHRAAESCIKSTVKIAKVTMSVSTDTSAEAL
T1 sequence (P63165 whole entry): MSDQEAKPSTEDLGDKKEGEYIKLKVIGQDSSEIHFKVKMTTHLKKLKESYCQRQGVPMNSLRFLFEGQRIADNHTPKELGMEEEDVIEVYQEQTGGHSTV
T2 sequence (P65502 whole entry): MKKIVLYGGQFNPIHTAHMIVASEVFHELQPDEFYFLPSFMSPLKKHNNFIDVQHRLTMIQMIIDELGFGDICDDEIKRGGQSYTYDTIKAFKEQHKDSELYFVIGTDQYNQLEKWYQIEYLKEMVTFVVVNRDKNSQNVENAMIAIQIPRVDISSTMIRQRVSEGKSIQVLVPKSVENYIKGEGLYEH
Chain of Bcl-2-like protein 1 (Q07817 whole entry): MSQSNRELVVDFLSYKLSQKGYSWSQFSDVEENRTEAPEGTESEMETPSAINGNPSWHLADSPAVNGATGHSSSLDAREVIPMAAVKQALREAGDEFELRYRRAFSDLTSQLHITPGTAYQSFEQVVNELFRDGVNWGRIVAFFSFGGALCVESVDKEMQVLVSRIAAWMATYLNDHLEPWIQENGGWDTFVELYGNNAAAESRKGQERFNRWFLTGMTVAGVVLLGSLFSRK
Chain of Intestinal-type alkaline phosphatase (Homo sapiens, UniProt P09923) (P09923 whole entry): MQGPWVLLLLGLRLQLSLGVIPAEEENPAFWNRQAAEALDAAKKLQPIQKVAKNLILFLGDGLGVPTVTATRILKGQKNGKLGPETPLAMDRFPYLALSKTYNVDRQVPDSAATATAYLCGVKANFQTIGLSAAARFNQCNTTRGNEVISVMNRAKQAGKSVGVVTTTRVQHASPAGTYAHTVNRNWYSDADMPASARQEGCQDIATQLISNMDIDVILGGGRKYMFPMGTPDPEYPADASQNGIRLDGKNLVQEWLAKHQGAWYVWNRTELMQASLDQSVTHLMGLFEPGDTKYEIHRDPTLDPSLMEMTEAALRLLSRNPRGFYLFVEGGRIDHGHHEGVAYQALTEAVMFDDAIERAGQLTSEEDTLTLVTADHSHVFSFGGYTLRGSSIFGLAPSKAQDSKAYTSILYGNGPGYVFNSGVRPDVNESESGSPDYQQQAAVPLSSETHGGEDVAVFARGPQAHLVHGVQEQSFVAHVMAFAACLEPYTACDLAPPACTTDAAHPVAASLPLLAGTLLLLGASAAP

For `O=C(C1=C(O)C(=O)N(c2nc3ccc(Cl)cc3s2)C1c1ccco1)c1ccco1` (configuration not stated), the IC50 was 28.8 µM (not active) in test [1]; > 109 µM (not active) in test [2]; > 66.6 µM (inactive) in test [4]; 13.8 µM (active) in test [5]; 56.8 µM (active) in test [6]; 8.8 µM (active) in [7]. In [9], the IC50 is 118 µM (active). Besides, the EC50 in [3] is 0.7 µM (active). The CC50 in [8] was 100 µM (active).
With `COc1cc(OC)c(NC(=O)CN(C)S(=O)(=O)c2ccc3nc(O)oc3c2)cc1Cl`, the EC50 in [10] is > 195 µM (not active); in test [11] it was 68.4 µM (active); in [12] it was 51.5 µM (active); in [13] it was 70.7 µM (active).
As for `COc1ccc(-c2n[nH]c(C)c2-c2ccc(Cl)cc2)c(O)c1`, the EC50 was 9.86 µM (active) in test [14]; > 32 µM (inactive) in test [15]; > 32 µM (inactive) in test [16]; 4.81 µM (active) and 5.4 µM (active) in test [21]. For the same compound, the IC50 was > 32 µM (inactive) in [17]; 548 nM (active) and 607 nM (active) in [18]; 10.9 µM (inactive) and 13.4 µM (inactive) in test [19]; 5.22 µM (active) and 4.83 µM (active) in [20]. Moreover, the AC50 in [22] was 28.2 µM (inconclusive).
